Results published in US4229584A, “Ureylenebis(anionic substituted phenylene carbonyl)imino naphthalene sulfonic acids and naphthalene carboxylic acids and their salts” (American Cyanamid Company, priority 1978, dated 1980).
Structures can show the parent of a compound that is named as a salt. Where two headings read alike, the source gives them in different places.

What was measured:
human C1 = molecular target: T1, human C1 (Homo sapiens, UniProt P09871); test: Test, Code 026 (C1 inhibitor): protection of fluid phase human C2 from activated human C1; type: biochemical; conditions: activity in wells, twofold serial dilution; higher well number indicates higher activity
T1 construct: substrate fluid phase human C2, in presence of C4
Source text: (§1) An active inhibitor protects C2 from C1 and C4; (ii) Test, Code 035 (C3-C9 inhibitor)--This test determines the ability of the late components of human complement (C3-C9) to lyse EAC 142 in the presence of appropriate dilutions of the test compound. An active inhibitor protects EAC 142 from lysis by human C3-C9; (iii) Test, Code 036 (C-Shunt inhibitor)--In this test human erythrocytes rendered fragile are lysed in autologous serum via the shunt pathway activated by cobra venom factor in the presence of appropriate dilutions of the test compound. Inhibition of the shunt pathway results in failure of lysis; (iv) Forssman Vasculitis Test--Here, the well known complement dependent lesion, Forssman vasculitis, is produced in guinea pigs by intradermal injection of rabbit anti-Forssman antiserum. The lesion is measured in terms of diameter, edema and hemorrhage and the extent to which a combined index of these is inhibited by prior intraperitoneal injection of the test compound at 200 mg/kg is then reported, unless otherwise stated; (v) Forssman Shock Test--Lethal shock is produced in guinea pigs by an i.v. injection of anti-Forssman antiserum and the harmonic mean death time of treated guinea pigs is compared with that of simultaneous controls; (vi) Complement Level Reduction Test--In this test, the above dosed guinea pigs, or others, are bled for serum and the complement level is determined in undiluted serum by the capillary tube method of U.S. Pat. No. 3,876,376 and compared to undosed control guinea pigs; and (vii) Cap 50 Test--Here, appropriate amounts of the test compound are added to a pool of guinea pig serum in vitro, after which the undiluted serum capillary tube assay referred to above is run. The concentration of compound inhibiting 50% is reported.
(§2) **Activity in wells, a serial dilution assay. Higher well number indicate
(§3) higher activity. The serial dilutions are twofold.

shunt pathway = test: Test, Code 036 (C-Shunt inhibitor): lysis of human erythrocytes in autologous serum via shunt pathway activated by cobra venom factor; type: cell-based; conditions: activity in wells, twofold serial dilution; higher well number indicates higher activity
Source text: as §1, §2, §3

whole complement = test: In vivo complement inhibition in guinea pigs (whole complement of serum, capillary tube assay); set-up: species or system guinea pig; conditions: for change in vivo at 200 mg/kg: Cavia porcellus, ip
Source text: as §1
With reference to Table I, guinea pigs weighing about 300 g were dosed intravenously (i.v.) or intraperitoneally (i.p.) with 200 mg/kg of the test compound dissolved in saline and adjusted to pH 7-8. […] The serum was tested for whole complement using the capillary tube assay. Percent inhibition was calculated by comparison with simultaneous controls. The results appear in Table I together with results of tests, Code 026, 035, 036, Cap 50, percent inhibition and Forssman shock.

[1] = tested on: late components of human complement (C3-C9); test: Test, Code 035 (C3-C9 inhibitor): lysis of EAC 142 by late components of human complement; type: cell-based; conditions: activity in wells, twofold serial dilution; higher well number indicates higher activity
Source text: as §1, §2, §3

[2] = 2 h, intraperitoneal, 200 mg/kg, 120 mins., read-out: In Vivo Activity (Guinea Pig) % Inhibition Intraperitoneal 120 mins.
[3] = 0.5 h, intraperitoneal, 200 mg/kg, 30 mins., read-out: In Vivo Activity (Guinea Pig) % Inhibition Intraperitoneal 30 mins.
[4] = 1 h, intraperitoneal, 200 mg/kg, 60 mins., read-out: In Vivo Activity (Guinea Pig) % Inhibition Intraperitoneal 60 mins.
[5] = 0.5 h, read-out: In Vivo Activity (Guinea Pig) % Inhibition Intraperitoneal 30 mins.
[6] = 1 h, read-out: In Vivo Activity (Guinea Pig) % Inhibition Intraperitoneal 60 mins.
[7] = 2 h, read-out: In Vivo Activity (Guinea Pig) % Inhibition Intraperitoneal 120 mins.

T1 sequence (P09871 16-688): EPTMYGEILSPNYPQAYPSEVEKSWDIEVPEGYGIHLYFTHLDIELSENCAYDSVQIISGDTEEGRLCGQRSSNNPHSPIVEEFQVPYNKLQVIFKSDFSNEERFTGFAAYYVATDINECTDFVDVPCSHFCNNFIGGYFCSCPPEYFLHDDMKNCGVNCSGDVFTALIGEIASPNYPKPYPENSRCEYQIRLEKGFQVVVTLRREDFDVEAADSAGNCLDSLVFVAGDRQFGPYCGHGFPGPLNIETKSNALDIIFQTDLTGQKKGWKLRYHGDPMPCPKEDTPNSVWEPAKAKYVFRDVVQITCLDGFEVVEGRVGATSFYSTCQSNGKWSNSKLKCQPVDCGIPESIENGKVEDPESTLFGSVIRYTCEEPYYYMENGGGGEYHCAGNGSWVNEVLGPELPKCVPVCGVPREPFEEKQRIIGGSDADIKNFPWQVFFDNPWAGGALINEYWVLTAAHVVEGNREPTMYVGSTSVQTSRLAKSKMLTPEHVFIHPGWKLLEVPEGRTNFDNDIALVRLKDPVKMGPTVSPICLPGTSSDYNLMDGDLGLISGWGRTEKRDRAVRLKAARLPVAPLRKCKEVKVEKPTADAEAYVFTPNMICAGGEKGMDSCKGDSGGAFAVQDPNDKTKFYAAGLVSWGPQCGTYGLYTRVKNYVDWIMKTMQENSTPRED
T1 sequence (P00736 18-705 partner): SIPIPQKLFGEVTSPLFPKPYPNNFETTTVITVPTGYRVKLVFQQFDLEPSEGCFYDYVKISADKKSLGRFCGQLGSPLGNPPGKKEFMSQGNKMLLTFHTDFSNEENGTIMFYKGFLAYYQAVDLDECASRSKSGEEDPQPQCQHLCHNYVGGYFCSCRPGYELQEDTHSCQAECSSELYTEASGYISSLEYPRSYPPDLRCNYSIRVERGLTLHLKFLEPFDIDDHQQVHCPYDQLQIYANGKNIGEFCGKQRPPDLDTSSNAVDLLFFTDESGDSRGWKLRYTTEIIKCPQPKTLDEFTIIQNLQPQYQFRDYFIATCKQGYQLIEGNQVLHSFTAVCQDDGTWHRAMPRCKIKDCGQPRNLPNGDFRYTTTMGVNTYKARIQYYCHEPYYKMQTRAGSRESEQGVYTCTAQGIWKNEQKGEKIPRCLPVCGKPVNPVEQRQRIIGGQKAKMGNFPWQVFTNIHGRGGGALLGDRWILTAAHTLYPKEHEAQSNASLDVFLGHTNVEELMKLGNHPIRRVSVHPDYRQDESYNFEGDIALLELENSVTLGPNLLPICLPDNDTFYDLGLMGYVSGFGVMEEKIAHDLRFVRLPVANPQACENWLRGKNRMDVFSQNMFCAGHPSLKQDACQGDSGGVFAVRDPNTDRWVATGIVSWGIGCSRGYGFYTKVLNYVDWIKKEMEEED
T1 sequence (P02745 23-245 partner): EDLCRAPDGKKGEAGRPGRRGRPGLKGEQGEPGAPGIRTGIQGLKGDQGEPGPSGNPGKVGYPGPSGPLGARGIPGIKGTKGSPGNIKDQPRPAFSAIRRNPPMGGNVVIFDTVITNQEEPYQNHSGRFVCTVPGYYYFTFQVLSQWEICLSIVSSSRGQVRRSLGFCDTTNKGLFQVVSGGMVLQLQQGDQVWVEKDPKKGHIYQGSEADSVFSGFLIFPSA
T1 sequence (P02746 28-253 partner): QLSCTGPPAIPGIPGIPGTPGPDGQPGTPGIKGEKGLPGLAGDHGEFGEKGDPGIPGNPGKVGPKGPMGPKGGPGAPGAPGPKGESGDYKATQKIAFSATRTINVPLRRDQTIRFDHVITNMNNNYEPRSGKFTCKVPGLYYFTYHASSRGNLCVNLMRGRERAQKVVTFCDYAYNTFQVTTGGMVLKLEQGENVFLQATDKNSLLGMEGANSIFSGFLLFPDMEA
T1 sequence (P02747 29-245 partner): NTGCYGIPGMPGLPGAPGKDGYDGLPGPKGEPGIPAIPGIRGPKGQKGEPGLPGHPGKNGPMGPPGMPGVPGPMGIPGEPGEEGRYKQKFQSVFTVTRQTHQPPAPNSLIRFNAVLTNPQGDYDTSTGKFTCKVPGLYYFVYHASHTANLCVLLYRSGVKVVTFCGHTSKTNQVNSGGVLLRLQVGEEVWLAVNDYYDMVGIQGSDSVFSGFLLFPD

With O=C(Nc1cc(C(=O)O)cc(C(=O)Nc2ccc(S(=O)(=O)O)c3cc(S(=O)(=O)O)cc(O)c23)c1)Nc1cc(C(=O)O)cc(C(=O)Nc2ccc(S(=O)(=O)O)c3cc(S(=O)(=O)O)cc(O)c23)c1 [3,3'-Ureylenebis{5-[(8-hydroxy-4,6-disulfo-1-naphthenyl)aminocarbonyl]-benzoic acid}tetrasodium salt] the “C1 026* Wells” value (human C1) was “+4 Wells”, the “Shunt Inhibition 036* Wells” value (shunt pathway) was “+2 Wells” and the change in vivo at 200 mg/kg (whole complement; [2]) was -94%.
In the case of COC(=O)c1cc(NC(=O)Nc2cc(C(=O)Nc3ccc(S(=O)(=O)O)c4cc(S(=O)(=O)O)cc(S(=O)(=O)O)c34)cc(C(=O)OC)c2)cc(C(=O)Nc2ccc(S(=O)(=O)O)c3cc(S(=O)(=O)O)cc(S(=O)(=O)O)c23)c1 [5,5'-Ureylenebis[N-(4,6,8-trisulfo-1-naphthyl)isophthalamic acid]dimethyl ester hexasodium salt], the “C1 026* Wells” value (human C1) is reported as “+4 Wells”, the “C-Late 035* Wells” value [1] is reported as “+1 Wells” and the “Shunt Inhibition 036* Wells” value (shunt pathway) is reported as “+1 Wells”. For the same compound, the change in vivo at 200 mg/kg (whole complement; [3]) was -14%, the change in vivo at 200 mg/kg (whole complement; [4]) was -17% and the change in vivo at 200 mg/kg (whole complement; [2]) was -25%.
In the case of O=C(Nc1cc(C(=O)O)cc(C(=O)Nc2cc(S(=O)(=O)O)cc3cc(S(=O)(=O)O)cc(S(=O)(=O)O)c23)c1)Nc1cc(C(=O)O)cc(C(=O)Nc2cc(S(=O)(=O)O)cc3cc(S(=O)(=O)O)cc(S(=O)(=O)O)c23)c1 [5,5'-Ureylenebis[N-(3,6,8-trisulfo-1-naphthyl)]isophthalamic acid octasodium salt], the “C1 026* Wells” value (human C1) is reported as “+10 Wells”, the “C-Late 035* Wells” value [1] is reported as “N” and the “Shunt Inhibition 036* Wells” value (shunt pathway) is reported as “+2 Wells”. The change in vivo at 200 mg/kg (whole complement; [3]) was -37%, the change in vivo at 200 mg/kg (whole complement; [4]) was -42% and the change in vivo at 200 mg/kg (whole complement; [2]) was -48%. The “In Vivo Activity (Guinea Pig) % Inhibition Intravenous 2 mins.” value (whole complement; 200 mg/kg) was -92%, the “In Vivo Activity (Guinea Pig) % Inhibition Intravenous 30 mins.” value (whole complement; 200 mg/kg, 30 mins.) was -44% and the “In Vivo Activity (Guinea Pig) % Inhibition Intravenous 120 mins.” value (whole complement; 200 mg/kg, 120 mins.) was -39%.
For O=C(Nc1ccc(C(=O)Nc2cccc3cc(S(=O)(=O)O)cc(O)c23)c(S(=O)(=O)O)c1)Nc1ccc(C(=O)Nc2cccc3cc(S(=O)(=O)O)cc(O)c23)c(S(=O)(=O)O)c1 [5,5'-{Ureylenebis[(2-sulfo-4,1-phenylenecarbonyl)imino]}-bis[4-hydroxy-2-naphthalenesulfonic acid]tetrasodium salt], the “C1 026* Wells” value (human C1) was “+2 Wells”, the change in vivo at 200 mg/kg (whole complement; [3]) was -26% and the change in vivo at 200 mg/kg (whole complement; [4]) was 0%. The change in vivo at 200 mg/kg (whole complement; [2]) was -58%.
In the case of O=C(Nc1ccc(C(=O)Nc2cc(S(=O)(=O)[O-])cc3cc(S(=O)(=O)[O-])cc(S(=O)(=O)[O-])c23)cc1)Nc1ccc(C(=O)Nc2cc(S(=O)(=O)[O-])cc3cc(S(=O)(=O)[O-])cc(S(=O)(=O)[O-])c23)cc1.[Na+].[Na+].[Na+].[Na+].[Na+].[Na+] [8,8'-[Ureylenebis(4,1-phenylenecarbonylimino)]di-1,3,6-naphthalenetrisulfonic acid hexasodium salt], the “C1 026* Wells” value (human C1) is reported as “+4 Wells”, the change in vivo at 200 mg/kg (whole complement; [5]) is reported as -18% and the change in vivo at 200 mg/kg (whole complement; [6]) is reported as -21%. The change in vivo at 200 mg/kg (whole complement; [7]) was -33%, the “In Vivo Activity (Guinea Pig) % Inhibition Intravenous 2 mins.” value (whole complement; 200 mg/kg) was -71% and the “In Vivo Activity (Guinea Pig) % Inhibition Intravenous 30 mins.” value (whole complement; 200 mg/kg, 30 mins.) was -28%. For the same compound, the “In Vivo Activity (Guinea Pig) % Inhibition Intravenous 120 mins.” value (whole complement; 200 mg/kg, 120 mins.) was -16%.
For O=C(Nc1cc(C(=O)O)cc(C(=O)Nc2cc(S(=O)(=O)O)cc3cc(S(=O)(=O)O)cc(O)c23)c1)Nc1cc(C(=O)O)cc(C(=O)Nc2cc(S(=O)(=O)O)cc3cc(S(=O)(=O)O)cc(O)c23)c1 [3,3'-(Carbonyldiimino)bis[5-[(8-hydroxy-3,6-disulfo-1-naphthalenyl)aminocarbonyl]]benzoic acid tetrasodium salt], the “C1 026* Wells” value (human C1) was “+6 Wells” and the change in vivo at 200 mg/kg (whole complement; [2]) was -69%.
For O=C(Nc1ccc(C(=O)Nc2cc3ccccc3cc2C(=O)[O-])c(S(=O)(=O)[O-])c1)Nc1ccc(C(=O)Nc2cc3ccccc3cc2C(=O)[O-])c(S(=O)(=O)[O-])c1.[Na+].[Na+].[Na+].[Na+] [3,3'-{Ureylenebis[(2-sulfo-4,1-phenylene)carbonylimino]}di-2-naphthoic acid tetrasodium salt], the “C1 026* Wells” value (human C1) was “N”, the “C-Late 035* Wells” value [1] was “+3 Wells” and the “Shunt Inhibition 036* Wells” value (shunt pathway) was “N”.
Compound O=C(Nc1ccc(C(=O)Nc2cc(S(=O)(=O)O)cc3cc(S(=O)(=O)O)cc(S(=O)(=O)O)c23)c(S(=O)(=O)O)c1)Nc1ccc(C(=O)Nc2cc(S(=O)(=O)O)cc3cc(S(=O)(=O)O)cc(S(=O)(=O)O)c23)c(S(=O)(=O)O)c1 [8,8'-{Ureylenebis{[(2-sulfo-4,1-phenylene)carbonyl]imino}}-1,3,6-naphthalenetrisulfonic acid octasodium salt] has a change in vivo at 200 mg/kg (whole complement; [3]) of 4%, a change in vivo at 200 mg/kg (whole complement; [4]) of 17% and a change in vivo at 200 mg/kg (whole complement; [2]) of -8%. For the same compound, the “In Vivo Activity (Guinea Pig) % Inhibition Intravenous 2 mins.” value (whole complement; 200 mg/kg) was -85%, the “In Vivo Activity (Guinea Pig) % Inhibition Intravenous 30 mins.” value (whole complement; 200 mg/kg, 30 mins.) was -53% and the “In Vivo Activity (Guinea Pig) % Inhibition Intravenous 120 mins.” value (whole complement; 200 mg/kg, 120 mins.) was -24%.
O=C(Nc1ccc(C(=O)Nc2cc(S(=O)(=O)O)cc3cc(S(=O)(=O)O)cc(O)c23)c(S(=O)(=O)O)c1)Nc1ccc(C(=O)Nc2cc(S(=O)(=O)O)cc3cc(S(=O)(=O)O)cc(O)c23)c(S(=O)(=O)O)c1 [4,4'-{Ureylenebis[(2-sulfo-4,1-phenylenecarbonyl)imino]}bis-[5-hydroxy-2,7-naphthalenedisulfonic acid]hexasodium salt] gave a change in vivo at 200 mg/kg (whole complement; [3]) of -35%, a change in vivo at 200 mg/kg (whole complement; [4]) of -41% and a change in vivo at 200 mg/kg (whole complement; [2]) of -74%. The “In Vivo Activity (Guinea Pig) % Inhibition Intravenous 2 mins.” value (whole complement; 200 mg/kg) was -98%, the “In Vivo Activity (Guinea Pig) % Inhibition Intravenous 30 mins.” value (whole complement; 200 mg/kg, 30 mins.) was -81% and the “In Vivo Activity (Guinea Pig) % Inhibition Intravenous 120 mins.” value (whole complement; 200 mg/kg, 120 mins.) was -63%.
For O=C(Nc1ccc(C(=O)Nc2cc(S(=O)(=O)[O-])cc3cc(S(=O)(=O)[O-])ccc23)c(S(=O)(=O)[O-])c1)Nc1ccc(C(=O)Nc2cc(S(=O)(=O)[O-])cc3cc(S(=O)(=O)[O-])ccc23)c(S(=O)(=O)[O-])c1.[Na+].[Na+].[Na+].[Na+].[Na+].[Na+] [4,4'-{Ureylenebis[(2-sulfo-4,1-phenylenecarbonyl)imino]}-di-2,7-naphthalenedisulfonic acid hexasodium salt], the “Shunt Inhibition 036* Wells” value (shunt pathway) was “N”.
For O=C(Nc1ccc(C(=O)Nc2ccc(S(=O)(=O)[O-])c3cc(S(=O)(=O)[O-])cc(S(=O)(=O)[O-])c23)c(S(=O)(=O)[O-])c1)Nc1ccc(C(=O)Nc2ccc(S(=O)(=O)[O-])c3cc(S(=O)(=O)[O-])cc(S(=O)(=O)[O-])c23)c(S(=O)(=O)[O-])c1.[Na+].[Na+].[Na+].[Na+].[Na+].[Na+].[Na+].[Na+] [8,8'-{Ureylenebis[(2-sulfo-4,1-phenylenecarbonyl)imino]}di-1,3,5-naphthalenetrisulfonic acid octasodium salt], the “C-Late 035* Wells” value [1] was “+1 Wells”, the change in vivo at 200 mg/kg (whole complement; [5]) was -32% and the change in vivo at 200 mg/kg (whole complement; [6]) was -31%. The change in vivo at 200 mg/kg (whole complement; [7]) was -51%, the “In Vivo Activity (Guinea Pig) % Inhibition Intravenous 2 mins.” value (whole complement; 200 mg/kg) was -89% and the “In Vivo Activity (Guinea Pig) % Inhibition Intravenous 30 mins.” value (whole complement; 200 mg/kg, 30 mins.) was -45%. The “In Vivo Activity (Guinea Pig) % Inhibition Intravenous 120 mins.” value (whole complement; 200 mg/kg, 120 mins.) was -29%.
With O=C(Nc1ccc(S(=O)(=O)[O-])c(C(=O)Nc2cc(S(=O)(=O)[O-])cc3cc(S(=O)(=O)[O-])cc(S(=O)(=O)[O-])c23)c1)Nc1ccc(S(=O)(=O)[O-])c(C(=O)Nc2cc(S(=O)(=O)[O-])cc3cc(S(=O)(=O)[O-])cc(S(=O)(=O)[O-])c23)c1.[Na+].[Na+].[Na+].[Na+].[Na+].[Na+].[Na+].[Na+] [8,8'-[Carbonylbis[imino[(-6-sulfo-3,1-phenylene)]carbonylimino]]-bis-1,3,6-naphthalenetrisulfonic acid octasodium salt] the “C1 026* Wells” value (human C1) was “+7 Wells”, the “Shunt Inhibition 036* Wells” value (shunt pathway) was “+1 Wells” and the change in vivo at 200 mg/kg (whole complement; [5]) was -23%. For the same compound, the change in vivo at 200 mg/kg (whole complement; [6]) was -58% and the change in vivo at 200 mg/kg (whole complement; [7]) was -71%.
For Cc1ccc(NC(=O)Nc2ccc(C)c(C(=O)Nc3ccc(S(=O)(=O)[O-])c4cc(S(=O)(=O)[O-])cc(O)c34)c2)cc1C(=O)Nc1ccc(S(=O)(=O)[O-])c2cc(S(=O)(=O)[O-])cc(O)c12.[Na+].[Na+].[Na+].[Na+] [4,4'-{Ureylenebis[(6-methyl-3,1-phenylenecarbonyl)imino]}-bis[5-hydroxy-1,7-naphthalenedisulfonic acid], tetrasodium salt], the “Shunt Inhibition 036* Wells” value (shunt pathway) was “+2 Wells”.
